Experimental data published in ChEMBL document CHEMBL3621049, “Imidazole derivatives show anticancer potential by inducing apoptosis and cellular senescence” (2014).
Calls of active or inactive are those of the source.

Tests used:
Assay type in all cases: functional, cell-based
DU-145 = test: Growth inhibition of human DU145 cells at 10 uM by sulforhodamine B assay
OVCAR-4 = test: Growth inhibition of human OVCAR4 cells at 10 uM by sulforhodamine B assay
HT-29 = test: Growth inhibition of human HT-29 cells at 10 uM by sulforhodamine B assay
MOLT-4 = test: Growth inhibition of human MOLT4 cells at 10 uM by sulforhodamine B assay
HCT-15 = test: Growth inhibition of human HCT15 cells at 10 uM by sulforhodamine B assay
CAKI-1 = test: Growth inhibition of human Caki1 cells at 10 uM by sulforhodamine B assay
MCF7 = test: Growth inhibition of human MCF7 cells at 10 uM by sulforhodamine B assay
PC-3 = test: Growth inhibition of human PC3 cells at 10 uM by sulforhodamine B assay
K562 = test: Growth inhibition of human K562 cells at 10 uM by sulforhodamine B assay
UO-31 = test: Growth inhibition of human UO31 cells at 10 uM by sulforhodamine B assay
NCI-H460 = test: Growth inhibition of human NCI-H460 cells at 10 uM by sulforhodamine B assay
Malme-3M = test: Growth inhibition of human MALME-3M cells at 10 uM by sulforhodamine B assay
HOP-92 = test: Growth inhibition of human HOP92 cells at 10 uM by sulforhodamine B assay
SN12C = test: Growth inhibition of human SN12C cells at 10 uM by sulforhodamine B assay
RXF 393 = test: Growth inhibition of human RXF393 cells at 10 uM by sulforhodamine B assay
SNB-75 = test: Growth inhibition of human SNB75 cells at 10 uM by sulforhodamine B assay
U-251 = test: Growth inhibition of human U251 cells at 10 uM by sulforhodamine B assay
RPMI-8226 = test: Growth inhibition of human RPMI8226 cells at 10 uM by sulforhodamine B assay
MDA-MB-435 = test: Growth inhibition of human MDA-MB-435 cells at 10 uM by sulforhodamine B assay
KM12 = test: Growth inhibition of human KM12 cells at 10 uM by sulforhodamine B assay
SK-OV-3 = test: Growth inhibition of human SKOV3 cells at 10 uM by sulforhodamine B assay
OVCAR-3 = test: Growth inhibition of human OVCAR3 cells at 10 uM by sulforhodamine B assay
COLO 205 = test: Growth inhibition of human COLO205 cells at 10 uM by sulforhodamine B assay
SK-MEL-28 = test: Growth inhibition of human SK-MEL-28 cells at 10 uM by sulforhodamine B assay
NCI-H23 = test: Growth inhibition of human NCI-H23 cells at 10 uM by sulforhodamine B assay
T47D = test: Growth inhibition of human T47D cells at 10 uM by sulforhodamine B assay
A498 = test: Growth inhibition of human A498 cells at 10 uM by sulforhodamine B assay
SF-268 = test: Growth inhibition of human SF268 cells at 10 uM by sulforhodamine B assay
NCI/ADR-RES = test: Growth inhibition of human NCI/ADR-RES cells at 10 uM by sulforhodamine B assay
M14 = test: Growth inhibition of human M14 cells at 10 uM by sulforhodamine B assay
TK-10 = test: Growth inhibition of human TK10 cells at 10 uM by sulforhodamine B assay
ACHN = test: Growth inhibition of human ACHN cells at 10 uM by sulforhodamine B assay
CCRF-CEM = test: Growth inhibition of human CCRF-CEM cells at 10 uM by sulforhodamine B assay
OVCAR-5 = test: Growth inhibition of human OVCAR5 cells at 10 uM by sulforhodamine B assay
NCI-H322M = test: Growth inhibition of human NCI-H322M cells at 10 uM by sulforhodamine B assay
BT-549 = test: Growth inhibition of human BT549 cells at 10 uM by sulforhodamine B assay
SNB-19 = test: Growth inhibition of human SNB19 cells at 10 uM by sulforhodamine B assay
Hs-578T = test: Growth inhibition of human Hs 578T cells at 10 uM by sulforhodamine B assay
HCT-116 = test: Growth inhibition of human HCT116 cells at 10 uM by sulforhodamine B assay
A549 = test: Growth inhibition of human A549/ATCC cells at 10 uM by sulforhodamine B assay
786-0 = test: Growth inhibition of human 786-0 cells at 10 uM by sulforhodamine B assay
HCC 2998 = test: Growth inhibition of human HCC2998 cells at 10 uM by sulforhodamine B assay
UACC-62 = test: Growth inhibition of human UACC62 cells at 10 uM by sulforhodamine B assay
LOX IMVI = test: Growth inhibition of human LOXIMVI cells at 10 uM by sulforhodamine B assay
SK-MEL-5 = test: Growth inhibition of human SK-MEL-5 cells at 10 uM by sulforhodamine B assay
SK-MEL-2 = test: Growth inhibition of human SK-MEL-2 cells at 10 uM by sulforhodamine B assay
HL-60(TB) = test: Growth inhibition of human HL-60(TB) cells at 10 uM by sulforhodamine B assay
SR = test: Growth inhibition of human SR cells at 10 uM by sulforhodamine B assay
HOP-62 = test: Growth inhibition of human HOP62 cells at 10 uM by sulforhodamine B assay
MDA-MB-231 = test: Growth inhibition of human MDA-MB-231 cells at 10 uM by sulforhodamine B assay
OVCAR-8 = test: Growth inhibition of human OVCAR8 cells at 10 uM by sulforhodamine B assay
NCI-H522 = test: Growth inhibition of human NCI-H522 cells at 10 uM by sulforhodamine B assay
SF-539 = test: Growth inhibition of human SF539 cells at 10 uM by sulforhodamine B assay
NCI-H226 = test: Growth inhibition of human NCI-H226 cells at 10 uM by sulforhodamine B assay
IGROV-1 = test: Growth inhibition of human IGROV1 cells at 10 uM by sulforhodamine B assay
SF-295 = test: Growth inhibition of human SF295 cells at 10 uM by sulforhodamine B assay
MDA-MB-468 = test: Growth inhibition of human MDA-MB-468 cells at 10 uM by sulforhodamine B assay
UACC-257 = test: Growth inhibition of human UACC257 cells at 10 uM by sulforhodamine B assay
SW-620 = test: Growth inhibition of human SW620 cells at 10 uM by sulforhodamine B assay

Measured: growth inhibition (GI)

C#CCn1c(-c2ccc(OC)c(OC3CCCC3)c2)nc(-c2ccccc2)c1-c1ccccc1
active: all assays above

COc1cc(-c2nc(-c3ccccc3)c(-c3ccccc3)[nH]2)ccc1OC1CCCC1
active: all assays above
